“And” between values parts separate entries of the source, which are not always exact repeats. Equal entries are not always repeated. Where no end group is shown, it is not given here.
Columns and labels:
[1] = system: BT-20 breast cancer cells; test: Cellular uptake of labelled peptide (fluorescence microscopy); assay type: cell-based, human; details: cells pulsed in vitro
Procedure: FIGS. 1A-1F. […] FIG. 1A) Human MUC1's cytoplasmic amino acid sequence (MUC1CT; SEQ ID NO: 15), which includes an EGFR/src phosphorylation site (underline; SEQ ID NO: 15, residues 46-49) and β-catenin binding site (double underline; SEQ ID NO: 15, residues 50-59). […] The cells were treated with EGF (30′ EGF, 10 ng/ml) or without (-S, no serum) and protein lysates were generated and separated on an SDS-PAGE. The lysates were immunoblotted (IB) for EGFR (1005) and β-actin (AC-15) FIG. 1D-F MDA-MB-468 cells were treated with EGF (10 ng/ml) and either (FIG. 1D) hPMIP (10 μM), (FIG. 1E) PTD4 (10 μM) or (FIG. 1F) PBS overnight. The cells were fixed, probed for MUC1 (Texas Red) and β-catenin (FITC) and examined on a confocal microscope (400×). Co-localization (arrows) analysis was performed using Image Pro Plus and is designated with white pixels.
BT20 cells were treated for 2 hours with 200 μM hPMIP tagged with FITC and fixed in 4% Paraformaldhyde/PBS. Fixed cells were washed 3 times with 0.02% NaN3/PBS and incubated with Slowfade Gold antifade reagent with DAPI (Invitrogen). Cells were visualized with a fluorescence DMLB Leica compound microscope. […]

[2] = system: MMTV-pyV mT induced mammary gland tumors; test: MMTV-pyV mT transgenic mouse spontaneous breast cancer; assay type: in vivo, mice; details: for number of established tumors that completely regressed: PTD4 n=60, PMIP n=70 tumor sites
Procedure: FIGS. 4A-4D. […] FIG. 4A) MMTV-pyV mT transgenic mice were injected with FITC-msPMIP (50 μg/g body weight), sacrificed four hours later and various tissues visualized using fluorescence microscopy. FITC-msPMIP localization in the mouse mammary gland tumors is shown (2.5× and 8×). FIG. 4B) Mammary gland tumors (>0.5 cm in diameter) were allowed to develop and mice were injected daily (50 μg/g body weight, 21 day treatment, intraperitoneal (i.p.) injection, 1× per day) with either msPMIP (7 mice) or PTD4 (6 mice). At the end of treatment, animals were sacrificed and proteins lysates made of the tumors for later analysis. […] Numbers above data are number of tumors that meet the size criteria over the total potential tumor sites.
MMTV-pyV mT mice (33), obtained from Jackson Laboratories) entered into study upon the development of tumors that measured ≧0.5 cm in at least one diameter. Only mice greater than seven weeks of age were included in the study and mice that developed fluid cysts were excluded. Animals were injected i.p. with 50 μg/g body weight of msPMIP or PTD4 once daily for 21 days. Each of ten mammary glands were measured using calipers every two days, and measurements were used to determine tumor volume based on the formula a^2×b/2, with a being the smaller diameter and b being the larger diameter. After treatment for 21 days, mice were sacrificed by CO2 inhalation and tissues resected. Several msPMIP treated mice were injected with FITC-msPMIP (50 μg/g body weight) one or four hours prior to sacrifice and intact tissues were visualized using a fluorescence MZFLIII Leica dissection microscope.

[3] = system: MDA-MB-231 breast cancer cells implanted into the mammary fat pad of scid mice; test: Human breast tumor xenograft in mammary fat pad; assay type: in vivo
Procedure: FIGS. 3A-3E. […] FIG. 3A) MDA-MB-231 cells in Matrigel were injected into the mammary fat pad of scid mice, and daily peptide treatment (50 μg/g body weight of hPMIP or PTD4) began when tumors reached 100 mm^3 (PTD4 and hPMIP n=8) and primary tumor growth was assessed (*, p=0.028). FIG. 3B) After the end of treatment, the amount of time the tumors took to progress to 1000 mm^3 was measured (ANOVA, **, p=0.03). […] FIG. 3D) MDA-MB-231 cells in Matrigel were injected into the mammary fat pad of scid mice, and daily peptide treatment (50 μg/g of hPMIP or PTD4) began when tumors reached 500 mm^3 (PTD4 n=4 and hPMIP n=6) and primary tumor growth was assessed. FIG. 3E) Following 21 days of treatment the tumors were resected immediately and tumor regrowth at the primary site and spread to secondary mammary glands was monitored (PTD4 n=4 and hPMIP n=4). Error bars represent standard error.
Immunocompromised (severe combined immune deficiency (scid)) mice (Taconic, Rockville, Md.) were tested for the presence of serum IgG and found to be <20 μg/ml IgG. Female mice (four to six weeks old) were injected with 1×10^7 cells embedded in Matri-gel (BD Biosciences) into the mammary fat pad and allowed to grow to either 100 mm^3 or 500 mm^3, based on the formula a^2×b/2 where a is the smaller diameter and b is the larger diameter. Mice were injected i.p. with 50 μg/g body weight of either PMIP or PTD4 control peptide for 21 days and measured with calipers every two days. Either at the end of 21 days, or after the tumor had reached 800 mm^3, tumors were resected by injecting the mice with buprenorphine (2.5 mg/kg body weight, Infusion Solutions, Totowa, N.J.) at least one hour prior to resection and anesthetizing the mice with isoflurane (Abbott, Abbott Park, Ill.). Following surgery, mice were treated with buprenorphine (2.5 mg/kg body weight) 8 and 16 hrs post-surgery. Animals were then followed for 10 days to examine regrowth at the primary tumor site or at secondary mammary glands, then sacrificed.

[4] = system: human breast cancer cell line MDA-MB-231; test: Annexin V and cell number quantification on plastic; assay type: cell-based; details: MDA-MB-231 grown on plastic
Excerpt: These cells were chosen as they represent models of high and low MUC1 expression, respectively (data not shown).

[5] = system: MMTV-pyV mT induced mammary gland tumors; test: MMTV-pyV mT transgenic mouse spontaneous breast cancer; assay type: in vivo; details: human peptide in MMTV-pyV mT mice
MDA-MB-231 cells = test: Invasion assay (Transwell into Type I collagen); assay type: cell-based, human; details: MDA-MB-231, 50 μM, vs PTD4 or PBS
Procedure: FIGS. 2A-2C. […] FIG. 2A) BT20 cells were cultured in a 96-well dish (10^4 cells/well) and treated daily for 6 days with either hPMIP (10 μM) or PTD4 (10 μM) in RPMI 1640/1% FBS. An MTT assay was performed to quantify cell number after treatment was complete (***, p<0.0001). Error bars represent standard error. FIG. 2B) MDA-MB-231 and FIG. 2C) BT20 cell lines were treated with either hPMIP (50 μM), PTD4 (50 μM), or PBS overnight, labeled with Calcein AM, allowed to invade through a Transwell (8.0 μM) insert into a Type I collagen gel, and the invaded cells were fluorescently measured. (ANOVA, *p<0.0001, **p<0.0001, #p=0.007, ##p=0.007). Error bars represent standard deviation.
Collagen matrix (0.9 mg/ml Type I Rat tail collagen (BD Biosciences, Billerica, Mass.), 83.0% (v/v) M-199 medium (Life Technologies), and 0.18% NaHCO3 (Fisher, Hampton, N.H.)) was poured into a 24 well plate. Prior to collagen polymerization a […] pore transwell insert (Corning Inc., Corning, N.Y.) was placed on top of the matrix. The polymerized collagen was rehydrated using a chemoattractant (20% FBS/RPMI 1640 with […] EGF). MDA-MB-231 cells were treated with 50 μM of peptide in serum free RPMI 1640 media for 17 hours. […] The number of fluorescently labeled cells that had invaded into the collagen were measured using a Molecular Devices spectrophotometer (Ex:485, Em:538, and Cutoff:530).

EGFR = biological target: T1, EGFR (Mus musculus, UniProt Q01279); test: Immunoblot of tumor lysates after EGF and peptide injection; assay type: in vivo, MMTV-pyV mT mice; details: EGF and peptide 30 minutes prior to sacrifice, after 21 day treatment
T1 construct: we generated protein lysates from tumors of MMTV-pyV mT animals injected with EGF and peptide; from tissue; host or cells: mammary gland tumours of MMTV-pyV mT mice
Procedure: (§1) FIGS. 6A-6B. PMIP is associated with reduced Mud 1 expression. FIG. 6A) A representative MMTV-pyV mT msPMIP (P) treated mouse and a PTD4 mouse (C) were each injected 30 minutes prior to sacrifice with epidermal growth factor (1 μg/g body weight) and with peptide. Following sacrifice the tumors were collected and protein lysates were generated. Protein (50 μg) was separated by SDS-PAGE, transferred and immunoblotted for expression of phosphotyrosine (PY99), EGFR (1005), Muc1 (CT2), and β-actin (AC-15). FIG. 6B) Lysates from MDA-MD-231 xenograft tumors (not treated with EGF; described in […]) were similarly analyzed to determine levels of EGFR and MUC1 protein expression. Relative protein levels of Muc1 were measured by densitometry and graphed (Muc1/β-actin, ANOVA, *p=0.014). Molecular weights are shown on the right. IB=immunoblot. White lines through blots indicate same gel and exposure but were non-contiguous.
To determine if msPMIP was affecting EGF-dependent degradation of EGFR, we generated protein lysates from tumors of MMTV-pyV mT animals injected with EGF and peptide 30 minutes prior to animal sacrifice (after a standard 21 day drug treatment).

MUC1 [6] = test: Immunoblot of xenograft tumor lysates for MUC1; assay type: in vivo, scid mice (MDA-MB-231 xenograft); details: MDA-MB-231 xenograft model
Procedure: as §1
(§2) To determine if msPMIP blocked interaction between Muc1 and β-catenin, we began by establishing levels of Muc1 protein expression in the tumor lysates. […] While the mechanism of this loss is unknown, it would certainly result in a loss of Muc1-dependent oncogenic signaling.

Muc1 [7] = test: Immunoblot of transgenic tumor lysates for Muc1; assay type: in vivo, MMTV-pyV mT mice; details: MMTV-pyV mT model
Procedure: as §1, §2

“FITC-hPMIP: FITC-labeled PTD4 conjugated to MIP peptides (human) (YARAAARQARAPYEKVSAGNGGSSLS; not fully specified (N-terminus); also: FITC label, place not given here)” was tested, and the “presence and retention of fluorescent peptide in cells” value [1] was “found to contain the fluorescent peptide and it was retained over time”.
“PTD4: PTD4 protein transduction domain, SEQ ID NO: 16, used as control peptide (YARAAARQARA; synthetic protein translocation domain)” was tested, and the “number of tumors sized 100-300 mm^3, end vs beginning of treatment” value ([2]; 50 μg/g i.p. daily, 21 days) was “doubled”, the tumor growth rate ([2]; 50 μg/g i.p. daily, 21 days) was 69 mm^3/day and the “tumors larger than 100 mm^3 (of possible tumor sites)” value ([2]; 50 μg/g i.p. daily, 21 days) was 47%. The “tumors that grew larger than 500 mm^3 by the end of the study” value ([2]; 50 μg/g i.p. daily, 21 days) was 13%, the “total tumor growth for all tumor sites” value ([2]; 50 μg/g i.p. once daily, over 21 days of treatment) was 589.5%±283.6% and ~590% and the “number of established tumors that completely regressed” value ([2]; 21 day treatment) was “none”. The “average tumor volume of regrowth / secondary mammary gland tumors after resection” value ([3]; treatment begun at 500 mm^3, 50 μg/g i.p. 21 days, resection, 10 days follow-up without drug) was 760 mm^3.
“hPMIP: human PMIP, SEQ ID NO: 17: MUC1 mimetic 15 amino acid peptide in tandem with PTD4 protein transduction domain (YARAAARQARAPYEKVSAGNGGSSLS; fusion protein)” was tested, and the “effect on apoptosis (Annexin V)” value [4] was “no detectable effects”, the “effect on cell growth (cell number)” value [4] was “no detectable effects” and the “primary tumor size vs control” value ([3]; treatment begun at 100 mm^3, 50 μg/g i.p. 21 days, p=0.028) was “significant decrease in tumor size”. The “length of time to reach resection size of 800 mm^3” value ([3]; treatment begun at 100 mm^3, after end of treatment, p=0.03) was “significant increase in the length of time”, the “tumor regrowth and spread 10 days after resection” value ([3]; treatment begun at 100 mm^3, resection at 800 mm^3) was “substantially decreased” and the “number of regrowth and secondary mammary gland tumors” value ([3]; treatment begun at 500 mm^3, after resection) was “found in equal number for both treatment groups”. The “effect on tumor growth” value [5] was “no effect on tumor growth” and the “invasion into Type I collagen matrix” value (MDA-MB-231 cells) was “strongly inhibited cellular invasion”.
In the case of “msPMIP: mouse PMIP, SEQ ID NO: 18: mouse Muc1 mimetic peptide in tandem with PTD4 protein transduction domain (YARAAARQARAPYEEVSAGNGSSSLS; fusion protein)”, the “expression of EGFR in tumor lysates” value (EGFR) was “striking reduction”, the “phosphotyrosine in tumor lysates” value (EGFR) was “striking reduction” and the “Muc1 protein expression in tumor lysates” value (MUC1 [6]) was “induced a loss of Muc1 protein expression”. The “number of tumors sized 100-300 mm^3, end vs beginning of treatment” value ([2]; 50 μg/g i.p. daily, 21 days) was “remained the same”, the “tumors larger than 100 mm^3 (of possible tumor sites)” value ([2]; 50 μg/g i.p. daily, 21 days) was 27% and the “tumors that grew larger than 500 mm^3 by the end of the study” value ([2]; 50 μg/g i.p. daily, 21 days) was 1%. The “number of established tumors that completely regressed” value ([2]; 21 day treatment) was “four”, the “tumor initiation (percent of tumor transitions from 0 mm^3 to 100 mm^3)” value ([2]; during drug treatment, p=0.0045) was “significant decrease” and the “frank tumors remaining after treatment” value ([2]; one representative mouse, 21 day treatment) was “no frank tumors remaining”. The “Muc1 protein expression in tumor lysates” value (Muc1 [7]) was “induced a loss of Muc1 protein expression”.

Reference: patent US20160082082A1, “USE OF THERAPEUTIC PEPTIDES FOR THE TREATMENT AND PREVENTION OF CANCER” (ARIZONA CANCER THERAPEUTICS L.L.C., priority 2008, published 2016)
